From EP0354453A2, “Antimicrobial agent for animals” (priority 1988, dated 1990)
In brackets after ≈: the same amount, converted by molar mass. Structures can show the parent of a compound that is named as a salt. Where two headings read alike, the source gives them in different places.

Columns and labels:
[1] = system: Escherichia coli 139; assay: in vitro antimicrobial activity (MIC), agar dilution, Part 2; type: cell-based
Procedure: (§1) Test microorganisms listed in Table 2 were cultured overnight in heart infusion nutrient broth (produced by Eiken Chemical Co., Ltd.). Culture broth containing about 10⁸/ml cells was diluted to a volume of 100 times. An aliquot (about 0.05 ml) of the diluted broth was inoculated onto a Mueller Hinton agar plate (produced by Eiken Chemical Co., Ltd.) to which Compound No. 1 was added in a prescribed concentration. […]
(§2) MIC of Compounds (1)-(8) against various pathogenic bacteria derived from animals was determined in the same manner as in Example 1.

[2] = system: Salmonella typhimurium 103; assay: as above; type: cell-based; conditions: Salmonella enterica
Procedure: as §1, §2

[3] = system: Staphylococcus aureus Yamaguchi 6; assay: as above; type: cell-based
Procedure: as §1, §2

[4] = system: Salmonella typhimurium 569; assay: as above; type: cell-based
Procedure: as §1, §2

[5] = system: Escherichia coli 881; assay: as above; type: cell-based
Procedure: as §1, §2

[6] = system: Escherichia coli S6W; assay: as above; type: cell-based
Procedure: as §1, §2

[7] = system: Bordetella bronchiaseptica OKM-1; assay: as above; type: cell-based
Procedure: as §1, §2

[8] = system: Pasteurella multocida DB-12-1; assay: as above; type: cell-based; conditions: DB121
Procedure: as §1, §2

[9] = system: Mycoplasma gallisepticum Strain 2004; assay: in vitro antimicrobial activity (MIC) in Frey liquid medium; type: cell-based; conditions: Mycoplasmoides gallisepticum, STRAIN2004
Procedure: (§3) Various test strains of Mycoplasma gallisepticum derived from chicken were cultured in a Frey liquid medium for Mycoplasma for 3 days. The culture broth containing about 10⁸/ml cells was diluted to a volume of 100 times. The diluted broth was inoculated into Frey liquid media for Mycoplasma to which the compounds of this invention were added at prescribed concentrations. The cells were incubated at 37°C for 3-5 days while daily observing the color of the media. Among the culture broths maintaining yellow color at the time when the control to which no test compound was added turned red, the concentration of the broth having the minimum concentration was taken as the MIC of the compound.

[10] = system: Mycoplasma gallisepticum Strain T-2; assay: as above; type: cell-based; conditions: Mycoplasmoides gallisepticum
Procedure: as §3

[11] = system: Mycoplasma gallisepticum Strain DP-1047; assay: as above; type: cell-based; conditions: Mycoplasmoides gallisepticum
Procedure: as §3

[12] = system: Mycoplasma gallisepticum Strain T-7; assay: as above; type: cell-based; conditions: Mycoplasmoides gallisepticum, Mycoplasma gallisepticum Strain T-7, from chicken, 37°C, 3-5 days
Procedure: as §3

[13] = system: Mycoplasma gallisepticum Strain 2012; assay: as above; type: cell-based; conditions: Mycoplasmoides gallisepticum, STRAIN2012
Procedure: as §3

[14] = Acute toxicity test, intravenous injection; type: in vivo
Procedure: Representative test compounds, Compounds (2) and (3), were intravenously injected to mice. No fatality occurred at a dose of 200 mg/kg (10 mice/group), for Compound (2), and a dose of 200 mg/kg (6 mice/group), for Compound (3). From the results, the LD₅₀ values of the compounds are considered to be greater than 200 mg/kg.

[15] = system: Mycoplasma gallisepticum; assay: Effect of oral administration on chicken inoculated with Mycoplasma gallisepticum; type: in vivo; conditions: for Chickens developing disease in air sac (naked eye observation) / No. of dead chickens: 5 tested chickens
Procedure: Mycoplasma gallisepticum cells collected from chickens having respiratory Mycoplasma infection were cultured for 3 days in a Frey liquid media for Mycoplasma. 0.2 ml of this culture broth was injected into the trachea of chickens of an average body weight of 80 g using a 1 ml disposable injection needle. Beginning from the next day following the inoculation, feeds to which Compound (1) had been added in the amount of 100 ppm, 75 ppm, or 50 ppm were freely given to the chickens for 5 days. Following the administration of Compound (1) the chickens were given feed containing no drug for a further 5 days. The surviving chickens were sacrificed and dissected. After examination of the degree of disease in the air sac, Mycoplasma gallisepticum in the infraorbital sinus, trachea, lung, and air sac were determined. […] TABLE 6 […]

[16] = Escherichia coli 139, Cow, read-out: MIC
[17] = Salmonella typhimurium 103, Chicken, read-out: MIC
[18] = Staphylococcus aureus Yamaguchi 6, Chicken, read-out: MIC
[19] = Salmonella enterica, TYPHIMURIUM, Salmonella typhimurium 569, Pig, read-out: MIC
[20] = Escherichia coli, 881, Escherichia coli 881, Pig, read-out: MIC
[21] = Escherichia coli, S6W, Escherichia coli S6W, Chicken, read-out: MIC
[22] = Bordetella, OKM1, Bordetella bronchiaseptica OKM-1, Pig, read-out: MIC
[23] = Pasteurella multocida DB-12-1, Pig, read-out: MIC
[24] = Mycoplasma gallisepticum Strain 2004, from chicken, Frey liquid medium, 37°C, 3-5 days, read-out: MIC
[25] = Mycoplasma gallisepticum Strain T-2, from chicken, Frey liquid medium, 37°C, 3-5 days, read-out: MIC
[26] = Mycoplasma gallisepticum Strain DP-1047, from chicken, Frey liquid medium, 37°C, 3-5 days, read-out: MIC
[27] = Mycoplasma gallisepticum Strain 2012, from chicken, Frey liquid medium, 37°C, 3-5 days, read-out: MIC

Structure (SMILES)	MIC [1, 16] [µg/mL]	MIC [2, 17] [µg/mL]	MIC [3, 18] [µg/mL]	MIC [4, 19] [µg/mL]	MIC [5, 20] [µg/mL]	MIC [6, 21] [µg/mL]	MIC [7, 22] [µg/mL]	MIC [8, 23] [µg/mL]	MIC [9, 24] [µg/mL]	MIC [10, 25] [µg/mL]	MIC [11, 26] [µg/mL]	MIC [12] [µg/mL]	MIC [13, 27] [µg/mL]	further results
CC(C)N1CCN(c2c(F)cc3c(=O)c(C(=O)O)cn4c3c2OCC4C)CC1 (racemic) [(4), 3(RS)-9-fluoro-2,3-dihydro-3-methyl-10-(4-iso-propyl-1-piperazinyl)-7-oxo-7H-pyrido[1,2,3-de] [1,4]benzoxazine-6-carboxylic acid]	0.78 (≈ 2 µM)	0.78 (≈ 2 µM)	0.78 (≈ 2 µM)	0.78 (≈ 2 µM)	0.39 (≈ 1 µM)	0.78 (≈ 2 µM)	0.78 (≈ 2 µM)	0.2 (≈ 0.514 µM)	0.05 (≈ 0.128 µM)	0.39 (≈ 1 µM)	0.2 (≈ 0.514 µM)	0.39 (≈ 1 µM)	0.05 (≈ 0.128 µM)	
CCN1CCN(c2c(F)cc3c(=O)c(C(=O)O)cn4c3c2OCC4C)CC1 (racemic) [Compound (2), 3(RS)-9-fluoro-2,3-dihydro-3-methyl-10-(4-ethyl-1-piperazinyl)-7-oxo-7H-pyrido[1,2,3-de] [1,4]benzoxazine-6-carboxylic acid]	0.2 (≈ 0.533 µM)	0.2 (≈ 0.533 µM)	0.39 (≈ 1.04 µM)	0.1 (≈ 0.266 µM)	0.1 (≈ 0.266 µM)	0.1 (≈ 0.266 µM)	0.2 (≈ 0.533 µM)	0.05 (≈ 0.133 µM)	0.025 (≈ 0.0666 µM)	0.1 (≈ 0.266 µM)	0.1 (≈ 0.266 µM)	0.1 (≈ 0.266 µM)	0.025 (≈ 0.0666 µM)	fatality ([14]; mice, intravenously injected, dose of 200 mg/kg): No fatality; LD50 ([14]; mouse, in vivo, iv): > 200 mg/kg; Mycoplasma gallisepticum collected in Air sac ([15]; 50 ppm in feed for 5 days): 2.08 Logarithmic number of collected cells per 1 g of tissue; Mycoplasma gallisepticum collected in Infraorbital sinus ([15]; 50 ppm in feed for 5 days): 0/5; Mycoplasma gallisepticum collected in Lung ([15]; 50 ppm in feed for 5 days): 2.43 Logarithmic number of collected cells per 1 g of tissue; Mycoplasma gallisepticum collected in Trachea ([15]; 50 ppm in feed for 5 days): 2.96 Logarithmic number of collected cells per 1 g of tissue; Chickens developing disease in air sac (naked eye observation) ([15]; 50 ppm in feed for 5 days): 0; No. of dead chickens ([15]; 50 ppm in feed for 5 days): 0; Mycoplasma gallisepticum collected in Air sac ([15]; 75 ppm in feed for 5 days): 0 Logarithmic number of collected cells per 1 g of tissue; Mycoplasma gallisepticum collected in Infraorbital sinus ([15]; 75 ppm in feed for 5 days): 0/5; Mycoplasma gallisepticum collected in Lung ([15]; 75 ppm in feed for 5 days): 0 Logarithmic number of collected cells per 1 g of tissue; Mycoplasma gallisepticum collected in Trachea ([15]; 75 ppm in feed for 5 days): 0 Logarithmic number of collected cells per 1 g of tissue; Chickens developing disease in air sac (naked eye observation) ([15]; 75 ppm in feed for 5 days): 0; No. of dead chickens ([15]; 75 ppm in feed for 5 days): 0; Mycoplasma gallisepticum collected in Air sac ([15]; 100 ppm in feed for 5 days): 0 Logarithmic number of collected cells per 1 g of tissue; Mycoplasma gallisepticum collected in Infraorbital sinus ([15]; 100 ppm in feed for 5 days): 0/5; Mycoplasma gallisepticum collected in Lung ([15]; 100 ppm in feed for 5 days): 0 Logarithmic number of collected cells per 1 g of tissue; Mycoplasma gallisepticum collected in Trachea ([15]; 100 ppm in feed for 5 days): 0 Logarithmic number of collected cells per 1 g of tissue; Chickens developing disease in air sac (naked eye observation) ([15]; 100 ppm in feed for 5 days): 0; No. of dead chickens ([15]; 100 ppm in feed for 5 days): 0
CCCCN1CCN(c2c(F)cc3c(=O)c(C(=O)O)cn4c3c2OCC4C)CC1 (racemic) [Compound (5), 3(RS)-9-fluoro-2,3-dihydro-3-methyl-10-(4-n-butyl-1-piperazinyl)-7-oxo-7H-pyrido[1,2,3-de] [1,4]benzoxazine-6-carboxylic acid]	0.78 (≈ 1.93 µM)	1.56 (≈ 3.87 µM)	0.78 (≈ 1.93 µM)	0.78 (≈ 1.93 µM)	0.78 (≈ 1.93 µM)	0.78 (≈ 1.93 µM)	0.78 (≈ 1.93 µM)	0.1 (≈ 0.248 µM)	0.025 (≈ 0.062 µM)	0.1 (≈ 0.248 µM)	0.1 (≈ 0.248 µM)	0.1 (≈ 0.248 µM)	0.025 (≈ 0.062 µM)	
CCN1CCN(c2c(F)cc3c(=O)c(C(=O)O)cn4c3c2OCC4C)CC1 (racemic) [Compound (8), 3(RS)-9-fluoro-2,3-dihydro-3-methyl-10-(4-ethyl-1-piperazinyl)-7-oxo-7H-pyrido[1,2,3-de] [1,4]benzoxazine-6-carboxylic acid hydrochloride hemihydrate]														MIC ([4]; Salmonella typhimurium 569, Pig, listed as No. 8, hydrochloride hemihydrate): 0.2 µg/mL; MIC ([5]; Escherichia coli 881, Pig, listed as No. 8, hydrochloride hemihydrate): 0.2 µg/mL; MIC ([6]; Escherichia coli S6W, Chicken, listed as No. 8, hydrochloride hemihydrate): 0.2 µg/mL; MIC ([7]; Bordetella bronchiaseptica OKM-1, Pig, listed as No. 8, hydrochloride hemihydrate): 0.39 µg/mL
CCN1CCN(c2c(F)cc3c(=O)c(C(=O)O)cn4c3c2OC[C@@H]4C)CC1 [(6), 3S-9-fluoro-2,3-dihydro-3-methyl-10-(4-ethyl-1-piperazinyl)-7-oxo-7H-pyrido[1,2,3-de] [1,4]benzoxazine-6-carboxylic acid]	0.1 (≈ 0.266 µM)	0.1 (≈ 0.266 µM)	0.2 (≈ 0.533 µM)	0.1 (≈ 0.266 µM)	0.1 (≈ 0.266 µM)	0.1 (≈ 0.266 µM)	0.2 (≈ 0.533 µM)							
CCCN1CCN(c2c(F)cc3c(=O)c(C(=O)O)cn4c3c2OC[C@@H]4C)CC1 [Compound (7), 3S-9-fluoro-2,3-dihydro-3-methyl-10-(4-n-propyl-1-piperazinyl)-7-oxo-7H-pyrido[1,2,3-de] [1,4]benzoxazine-6-carboxylic acid]	0.2 (≈ 0.514 µM)	0.2 (≈ 0.514 µM)	0.2 (≈ 0.514 µM)	0.2 (≈ 0.514 µM)	0.2 (≈ 0.514 µM)	0.2 (≈ 0.514 µM)	0.39 (≈ 1 µM)							
CCn1cc(C(=O)O)c(=O)c2cc3c(cc21)OCO3 [Oxolinic acid, reference compound]														MIC ([1]; Escherichia coli, 139): 0.78 µg/mL (≈ 2.99 µM); MIC ([2]; TYPHIMURIUM): 0.78 µg/mL (≈ 2.99 µM); MIC ([3]; Staphylococcus aureus): 3.13 µg/mL (≈ 12 µM); MIC ([4]; Salmonella enterica, TYPHIMURIUM): 0.39 µg/mL (≈ 1.49 µM); MIC ([5]; Escherichia coli, 881): 0.39 µg/mL (≈ 1.49 µM); MIC ([6]; Escherichia coli, S6W): 0.39 µg/mL (≈ 1.49 µM); MIC ([7]; Bordetella, OKM1): 1.56 µg/mL (≈ 5.97 µM); MIC ([8]; Pasteurella multocida): 0.2 µg/mL (≈ 0.766 µM); MIC [9]: > 100 µg/mL; MIC [10]: > 100 µg/mL; MIC [11]: > 100 µg/mL; MIC [13]: > 100 µg/mL
